Data from patent EP1082319B1, “BENZOCARBAZOLE AND INDENOINDOLE DERIVED ESTROGENIC AGENTS” (Wyeth, priority 1998, dated 1999).

Key:
human estrogen receptor = biological target: T1, human estrogen receptor (Homo sapiens, UniProt P03372); test: 2X VIT ERE infection luciferase assay in CHO cells stably transfected with the human estrogen receptor; type: cell-based; details: for Infection Luciferase Activity, 1 uM + 17β estradiol: 1 uM compound + 1 nM 17β-estradiol, 24 h (tests for estrogen antagonism), percentage of activity as compared to 17β-estradiol; for Infection Luciferase Activity, 1 uM: 1 uM compound alone, 24 h, percentage of activity as compared to 17β-estradiol (agonism)
T1 construct: expressed in transfected cells
Method: Chinese Hamster Ovary cells (CHO) which had been stably transfected with the human estrogen receptor were maintained in DMEM + 10% fetal bovine serum (FBS). 48h prior to treatment the growth medium was replaced with DMEM lacking phenol red + 10% dextran coated charcoal stripped FBS (treatment medium). Cells were plated at a density of 5000 cells/well in 96-well plates containing 200 µL of medium/well.
Reporter DNA (Promega plasmid pGL2 containing two tandem copies of the vitellogenin ERE in front of the minimal thymidine kinase promoter driving the luciferase gene) was combined with the B-galactosidase expression plasmid pCH110 (Pharmacia) and carrier DNA (pTZ18U) in the following ratio: • 10uG of reporter DNA • 5uG of pCH110DNA • 5 uG of pTZ18U • 20 uG of DNA/1 mL of transfection solution
The DNA (20uG) was dissolved in 500 uL of 250 mM sterile CaCl2 and added dropwise to 500 uL of 2 X HeBS (0.28 M NaCl, 50 mM HEPES, 1.5 mM Na2HPO4, pH 7.05) and incubated at room temperature for 20 minutes. 20 uL of this mixture was added to each well of cells and remained on the cells for 16 h. […] Each treatment condition was performed on 8 wells (n=8) which were incubated for 24 h prior to the luciferase assay.
After 24h exposure to compounds, the media was removed and each well washed 2X with 125 uL of PBS lacking Mg^++ and Ca^++. After removing the PBS, 25 uL of Promega lysis buffer was added to each well and allowed to stand at room temperature for 15 min, followed by 15 min at -80°C and 15 min at 37°C. 20 uL of lysate was transferred to an opaque 96 well plate for luciferase activity evaluation and the remaining lysate (5 uL) was used for the B-galactosidase activity evaluation (normalize transfection). The luciferan substrate (Promega) was added in 100 uL aliquots to each well automatically by the luminometer and the light produced (relative light units) was read 10 seconds after addition.
To the remaining 5 uL of lysate 45 uL of PBS was added. Then 50 uL of Promega B-galactosidase 2X assay buffer was added, mixed well and incubated at 37°C for 1 hour. A plate containing a standard curve (0.1 to 1.5 milliunits in triplicate) was set up for each experimental run. The plates were analyzed on a Molecular Devices spectrophotometric plate reader at 410 nm. The optical densities for the unknown were converted to milliunits of activity by mathematical extrapolation from the standard curve.
The luciferase data was generated as relative light units (RLUs) accumulated during a 10 second measurement and automatically transferred to a JMP (SAS Inc) file where background RLUs were subtracted. The B-galactosidase values were automatically imported into the file and these values were divided into the RLUs to normalize the data. The mean and standard deviations were determined from a n=8 for each treatment.

estrogen receptor = biological target: T2, estrogen receptor (Homo sapiens, UniProt P03372); test: In vitro estrogen receptor binding assay (competition with [3H]-17β-estradiol, cytosol of CHO cells overexpressing the receptor); details: for IC50: read-out: Receptor Binding IC50's; for binding to the ER receptor, comparison in words: compared with the indenoindole Example 4, from Table 2
T2 construct: expressed in transfected cells; host or cells: CHO cells (ribosome-free cytosol)
T2 sequence (P03372 1-595): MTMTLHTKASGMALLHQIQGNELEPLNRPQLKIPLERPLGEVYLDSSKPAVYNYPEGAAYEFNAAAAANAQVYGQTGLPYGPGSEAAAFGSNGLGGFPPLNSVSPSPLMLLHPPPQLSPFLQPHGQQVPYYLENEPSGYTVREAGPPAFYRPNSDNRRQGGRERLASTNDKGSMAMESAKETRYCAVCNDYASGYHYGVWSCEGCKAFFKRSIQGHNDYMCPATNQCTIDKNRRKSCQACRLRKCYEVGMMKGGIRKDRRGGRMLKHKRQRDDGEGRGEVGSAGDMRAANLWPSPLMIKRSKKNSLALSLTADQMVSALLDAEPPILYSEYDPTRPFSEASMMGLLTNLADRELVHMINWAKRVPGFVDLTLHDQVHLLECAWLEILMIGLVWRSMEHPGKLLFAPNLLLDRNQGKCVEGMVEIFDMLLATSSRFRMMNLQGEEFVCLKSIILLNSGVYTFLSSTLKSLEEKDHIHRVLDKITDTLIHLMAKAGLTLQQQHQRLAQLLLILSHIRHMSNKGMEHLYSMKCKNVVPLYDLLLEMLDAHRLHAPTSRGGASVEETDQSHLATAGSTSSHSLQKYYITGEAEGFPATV
Method: The plates were washed twice with PBS and once with 10 mM Tris-HCl, pH 7.4, 1 mM EDTA. Cells were harvested by scraping the surface and then the cell suspension was placed on ice. Cells were disrupted with a hand-held motorized tissue grinder using two, 10-second bursts. The crude preparation was centrifuged at 12,000g for 20 minutes followed by a 60 minute spin at 100,000g to produce a ribosome free cytosol. The cytosol was then frozen and stored at -80°C. Protein concentration of the cytosol was estimated using the BCA assay with reference standard protein. […] The plate was incubated at room temperature for 2.5 h. At the end of this incubation period 150 uL of ice-cold dextran coated charcoal (5% activated charcoal coated with 0.05% […] dextran) was added to each well and the plate was immediately centrifuged at 99g for 5 minutes at 4°C. 200 uL of the supernatant solution was then removed for scintillation counting. […] Also, wells containing radioactivity but no cytosol were processed with charcoal to estimate unremovable DPM of [^3H] 17β-estradiol. Counts per minute (CPM) of radioactivity were automatically converted to disintegrated per minute (DPM) by the Beckman LS 7500 Scintillation Counter using a set of quenched standards to generate a H# for each sample. […]

SMILES | Infection Luciferase Activity, 1 uM + 17β estradiol (human estrogen receptor) | Infection Luciferase Activity, 1 uM (human estrogen receptor) | IC50 (estrogen receptor) | binding to the ER receptor, comparison in words (estrogen receptor)
COc1ccc2c(c1)Cc1c-2n(Cc2ccc(OCCN3CCCCC3)cc2)c2ccc(O)cc12 [Example 4, 2-Methoxy-5-[4-(2-piperidin-1-yl-ethoxy)-benzyl]-5,10-dihydro-indeno[1,2-b]indol-8ol] | 83% | -2% | 430 nM | 
COc1ccc2c(c1)CCc1c-2n(Cc2ccc(OCCN3CCCCC3)cc2)c2ccc(O)cc12 [Example 13, 3-Methoxy-11-[4-(2-piperidin-1-yl-ethoxy)-benzyl]-5,11-dihydro-6H-benzo[a]carbazol-8-ol] | 1% | -7% | 110 nM | bind better to the ER receptor than the indenoindole Example 4
COc1ccc2c(c1)CCc1c-2n(Cc2ccc(OCCN3CCCCCC3)cc2)c2ccc(O)cc12 [Example 14] | 8% | 1% | 190 nM | bind better to the ER receptor than the indenoindole Example 4
